According to patent US20150087610A1, “Method of Modifying Fertility” (Monell Chemical Senses Center, priority 2012, published 2015):
“Also recorded” adds a separate entry of the source.

Key:
[1] = test system: sperm isolated from the Gnat3−/−mutant mice; experiment: Calcium imaging of sperm from Gnat3−/− mutant mice; type: cell-based, mouse; conditions: 2 mM
Experimental: (§1) Eight adult male mice of each genotype: C57BL/6 and Gnat^−/− mice, were sacrificed, and the testis and caudal epididymis were immediately removed and transferred into HS solution containing (mM): 135 NaCl, 5 KCl, 2 CaCl2, 1 MgCl2, 30 Hepes, 10 glucose, 10 lactic acid, and 1 pyruvic acid (pH adjusted to 7.4 with NaOH) (Xia et al., 2007). For isolation of spermatids, seminiferous tubules from mouse testicle were dissected out and placed in a […] containing 3 ml of HS medium. The tissue was finely minced and gently triturated with a fire-polished pipette, and the mixture was filtered with a 100 μm nylon cell strainer (BD Falcon, Bedford, Mass.). The dissociated cells were collected in a 1.5 ml plastic tube, and washed once in HS medium by centrifugation at 300 g for 4 min and resuspended in HS medium.
(§2) For isolation of epididymal spermatozoa, three incisions were made to the caudal epididymis, which was incubated in a 1.5-ml tube containing 1 ml of HS medium and 5 mg/ml bovine serum albumin (BSA) in a 5% CO2 incubator at 37° C. for 20 minutes (Xia et al., 2007). Sperm cells released into the medium were collected from top 0.1 ml, which were adjusted to 1×10^7 cells/ml HS medium.
(§3) Mouse spermatogenic cells were loaded with 5 μM acetoxymethylester of Fura-2 (Fora-2/AM) and 80 μg/ml pluronic F127 (Molecular Probes, Eugene, Oreg.) and transferred onto coverslips (22×60 mm, No. 0, Thomas Scientific Co.) for at least 1 hour at room temperature. The coverslip with spermatogenic cells was mounted in a recording chamber and superfused with HS or HS containing tasting compounds or the bitter blocker probenecid (Sigma-Aldrich, St. Louis, Mo.) via a valve controller (VC-8, Warner, USA).
(§4) Imaging of calcium responses was conducted as previously described (Gomez et al, 2005). Stimulation duration was 30 seconds and perfusion rate was 0.8 ml/min. Cells were excited at 340 nm and 380 nm and signals at 510 nm were captured by a cooled CCD camera. The change in fluorescence ratio (F=F340/F380) was recorded for regions-of-interest drawn on the cells.

[2] = target: human Tas2r38 (Homo sapiens, UniProt P59533); conditions: cited from earlier work
[3] = test system: mouse spermatids; experiment: Calcium imaging of mouse spermatids with bitter tastants; type: cell-based; conditions: for cells responding with increased intracellular calcium: 29 cells; for calcium response in the principal piece: compared with acrosome and midpiece; for increase in intracellular calcium, acrosome versus midpiece: subcellular areas; for number of cells responding: out of 29 cells
Experimental: as §1, §3, §4
(§5) To analyze the dose-dependent calcium responses, the response intensity (FN) was normalized and expressed as ΔF/F0 value: ΔF/F0=(F−F0)/F0. Here F0 is the fluorescence at the beginning of stimulation, i.e., time 0, and F is the peak fluorescence ratio evoked by the stimulation. Dose-response curves and EC50 values were generated based on the normalized responses using the software Origins by nonlinear regression.

[4] = test system: epididymal sperm cells; experiment: Calcium imaging of mouse epididymal sperm cells with bitter tastants; type: cell-based; conditions: for calcium responses from the principal pieces / # CELLS RESPONDED / amplitudes of the responses from the acrosome and midpiece: epididymal sperm; for cells responding with calcium responses: 49 cells; for amplitudes of the responses from the acrosome and midpiece: subcellular areas
Experimental: as §2, §3, §4, §5

[5] = test system: C57B/6L wild-type sperm; experiment: Bitter blocker probenecid on calcium responses of wild-type mouse sperm; type: cell-based; conditions: 300 μM PTC alone
Experimental: as §3, §4
To confirm whether the germ cells' responses to bitter tastants were mediated by the bitter taste receptors, we examined the effect of the bitter taste receptor blocker probenecid (Greene et al, 2001) and nullification of the α-gustducin gene in Gnat3 α-gustducin knockout mice described in Wong et al, 1996. Probenecid is known to inhibit the responses of human T2R16, 38 and 43 to salicin, PTC and PROP, and aloin, but not that of T2R31 to saccharin (Greene et al, 2011).

[6] = spermatids, response profile 1, total 29 cells
[7] = spermatids, response profile 3, total 29 cells
[8] = spermatids, response profile 5, total 29 cells
[9] = FIG. 6, epididymal sperm Cell 1
[10] = FIG. 6, epididymal sperm Cell 3
[11] = FIG. 6, epididymal sperm Cell 4
[12] = response profile 1, total 49 cells
[13] = response profile 2, total 49 cells
[14] = response profile 3, total 49 cells
[15] = response profile 4, total 49 cells
[16] = response profile 5, total 49 cells
[17] = response profile 7, total 49 cells
[18] = response profile 8, total 49 cells
[19] = response profile 10, total 49 cells
[20] = spermatids, response profile 2, total 29 cells
[21] = spermatids, response profile 6, total 29 cells
[22] = response profile 6, total 49 cells
[23] = response profile 11, total 49 cells
[24] = spermatids, response profile 4, total 29 cells
[25] = FIG. 6, epididymal sperm Cell 5
[26] = response profile 9, total 49 cells

| SMILES | calcium response of Gnat3−/− sperm [1] | cells responding with increased intracellular calcium ([3]; spermatids) | # CELLS RESPONDED [3, 6] | # CELLS RESPONDED [3, 7] | calcium response of individual cell [4, 9] | calcium response of individual cell [4, 11] | calcium responses from the principal pieces [4] | cells responding with calcium responses ([4]; epididymal sperm cells) | # CELLS RESPONDED [4, 12] | # CELLS RESPONDED [4, 13] | # CELLS RESPONDED [4, 14] | # CELLS RESPONDED [4, 15] | # CELLS RESPONDED [4, 16] | # CELLS RESPONDED [4, 17] | # CELLS RESPONDED [4, 18] | amplitudes of the responses from the acrosome and midpiece [4] | calcium response in the principal piece ([3]; spermatids) | # CELLS RESPONDED [3, 20] | increase in intracellular calcium, acrosome versus midpiece ([3]; spermatids) | # CELLS RESPONDED [4, 22] | further results |
| --- | --- | --- | --- | --- | --- | --- | --- | --- | --- | --- | --- | --- | --- | --- | --- | --- | --- | --- | --- | --- | --- |
| Nc1ncnc2c1ncn2[C@@H]1O[C@H](COP(=O)(O)OP(=O)(O)OP(=O)(O)O)[C@@H](O)[C@H]1O [ATP] | normal; also recorded: did respond | – | – | – | – | – | – | – | – | – | – | – | – | – | – | – | – | – | – | – | – |
| CCCc1cc(=O)[nH]c(=S)[nH]1 [PROP, 6-propyl-2 thiouracil] | unresponsive; also recorded: did not respond | 27.6% | 3 | 1 | responded | responded weakly | mostly undetectable | about 61.2% | 4 | 13 | 1 | 1 | 4 | 1 | 1 | equally strong | – | – | – | – | EC50 ([2]; four responding variants of the receptor): 2 to 4 µM; response of receptor variants ([2]; two of six variants): unresponsive; EC50 ([3]; mouse spermatids, Fura-2 calcium imaging, normalized ΔF/F0, read-out: EC50 of calcium response): 24 ± 12 µM; # CELLS RESPONDED [3, 8]: 1; # CELLS RESPONDED ([3]; spermatids, response profile 9, total 29 cells): 3; calcium response at low concentrations ([3]; spermatids, 0.01, 0.1 and 1 μM): No responses; calcium response of individual cell [4, 10]: weakly; # CELLS RESPONDED [4, 19]: 5 |
| NC(=S)Nc1ccccc1 [PTC, N-phenylthiourea] | unresponsive; also recorded: did not respond | – | 3 | 1 | responded | – | mostly undetectable | – | 4 | 13 | – | 1 | – | 1 | 1 | equally strong | detectable but much smaller | 1 | much larger in the acrosome than in the midpiece | 1 | # CELLS RESPONDED [3, 21]: 1; # CELLS RESPONDED ([3]; spermatids, response profile 10, total 29 cells): 3; increase in the intracellular calcium concentration [5]: significant; # CELLS RESPONDED [4, 23]: 1 |
| C[C@@H]1C[C@@H]([C@H](O)CC2CC(=O)NC(=O)C2)C(=O)[C@@H](C)C1 [cycloheximide] | did not respond | 62.1% | 3 | 1 | responded | responded weakly | mostly undetectable | 93.9% | 4 | 13 | 1 | 1 | 4 | 1 | – | equally strong | – | 1 | – | 1 | number of cells responding ([3]; spermatids): 18; # CELLS RESPONDED [3, 24]: 7; # CELLS RESPONDED [3, 8]: 1; # CELLS RESPONDED ([3]; spermatids, response profile 7, total 29 cells): 5; calcium response of individual cell ([4]; FIG. 6, epididymal sperm Cell 2): responded only; calcium response of individual cell [4, 10]: responded; calcium response of individual cell [4, 25]: responded weakly; number of cells responding ([4]; epididymal sperm cells, out of 49 cells): 46; # CELLS RESPONDED [4, 26]: 1; # CELLS RESPONDED [4, 19]: 5; # CELLS RESPONDED ([4]; response profile 12, total 49 cells): 15; calcium response of Gnat3−/− sperm ([1]; listed as cyclohexmide): unresponsive |
| CC[N+](CC)(CC(=O)Nc1c(C)cccc1C)Cc1ccccc1 [denatonium] | unresponsive; also recorded: did not respond | 55.2% | 3 | – | responded | responded weakly | mostly undetectable | ~53.1% | 4 | 13 | 1 | – | 4 | – | 1 | equally strong | detectable but much smaller | 1 | much larger in the acrosome than in the midpiece | 1 | # CELLS RESPONDED [3, 24]: 7; # CELLS RESPONDED [3, 21]: 1; # CELLS RESPONDED ([3]; spermatids, response profile 8, total 29 cells): 4; calcium response of individual cell [4, 25]: responded weakly; # CELLS RESPONDED [4, 26]: 1; # CELLS RESPONDED [4, 23]: 1 |
| CCN(CC)CCNC(=O)c1ccc(N)cc1 [procainamide] | – | – | – | – | – | – | – | – | – | – | – | – | – | – | – | – | detectable but much smaller | – | much larger in the acrosome than in the midpiece | – | – |
| OCc1ccccc1O[C@@H]1O[C@H](CO)[C@@H](O)[C@H](O)[C@H]1O [salicin] | unresponsive; also recorded: did not respond | – | – | – | – | – | – | about 14.3% | 4 | – | 1 | 1 | – | – | – | – | – | – | – | – | number of cells responding ([3]; spermatids): No spermatids were found to respond; frequency of responsive cells ([4]; FIG. 6, epididymal sperm): rare; # CELLS RESPONDED ([4]; response profile 13, total 49 cells): 1 |
